Where two headings read alike, the source gives them in different places.
Key:
[1] = system: Triticum aestivum (Spring wheat) variety KWS Alderon; experiment: Translaminar (herbicidal) activity of Quizalofop-p-ethyl formulations sprayed on wheat, EPPO PP1/135 assessment; format: in vivo; details: control of volunteer wheat; compared with conventional formulation
[2] = system: German cockroach, Blattella germanica; details: cited from earlier work
[3] = Loading of acetamiprid dry powder seed treatment on seeds; format: physicochemical
[4] = cited from earlier work
[5] = Azoxystrobin retention on maize seed after Heubach mechanical stress (GC-ECD); format: physicochemical
Method: • Test item type and 1. Polyethylene Entostat (W3800) containing 499 mg/g contents: Azoxystrobin fungicide. • 2. Carnauba Entostat (W3738) containing 435 mg/g Azoxystrobin fungicide. • Test item rate: When using a commercial standard biological efficacy in maize is observed at […] seed. W3800 and W3738 were applied at […] of that commercial standard a.s. rate Table 1. • Application interval: Single application at the start of the study • Supplier: Entostat, Exosect, UK • Azoxystrobin, Albaugh, USA. • Storage: Pesticide cabinet in formulation laboratory, Exosect
The independent factors were, dry powder seed treatment formulation type (W3800 and W3738) and Azoxystrobin application rate (Low, Medium, and High). Residues of the active ingredient Azoxystrobin recovered from maize before and after mechanical stress were quantified. Each treatment will be replicated ten times. Work involving the Heubach Dustmeter was conducted according to know standard procedures.
Seeds were equilibrated in incubator 308 at 20° C.±2° C. and at 50%±10% relative humidity for at least 48 hours prior to testing.
Treatments were weighed into sterile 1 L Duran bottles along with 500 g of maize seeds. The treatments were homogenized for 30 seconds by gently agitating using the Stuart Rotator with MIX2040 attachment. 50 maize seeds were removed from each batch, weighed, and placed in a bioassay jar for pre mechanical stress quality control analysis. One 100 g sample were removed from each batch.
The 100 g sample was mechanically stressed in the Heubach Dustmeter (Heubach GMbh, Heubachstrasse7, 38685 Langelsheim), following the procedures outlined in TDRF311. Work involving the Heubach Dustmeter was conducted between 23° C. and 29° C. and 30% and 70% relative humidity in Bioassay Room 2. After the cycle, treated seeds were removed from the rotating drum. 50 maize seeds were removed from each batch, weighed, and placed in a bioassay jar for post mechanical stress quality control analysis.
Azoxystrobin present on the seed samples taken before and after Heubach mechanical stress were analysed using gas chromatography with electron capture detector (GC-ECD). From these values the percentage change of Azoxystrobin a.s. retained by the seeds mechanical stress was calculated.
Percentage Azoxystrobin retained on maize seed after mechanical stress was modelled using R (version 3.3.1). After testing for normality using a Shapiro-Wilk normality test, ANOVA was used to analyse the data linear model. Percentage Azoxystrobin retention was modelled as a function of the factors formulations type (W3800 and W3738), Azoxystrobin application rate (0.006259, 0.06259 and 0.6259 g a.s./kg seed) and interactions between the factors. Formulation W3800 at its lowest application (0.006259 g a.s./kg seed) was used as the control.

[6] = system: Zymoseptoria tritici (formerly Septoria tritici); experiment: Translaminar activity of Azoxystrobin formulated in Entostat against Z. tritici on wheat; format: in vivo; details: control of Zymoseptoria tritici; compared with conventional formulation
Source text: • Test item type and Entostat SC contains in 300 g/L Entostat (Polyethylene contents: wax variant), with the wax component formulated with 81.8 g/L Azoxystrobin (8.18% w/w Azoxystrobin in SC) • Test item rate: The Entostat formulation was applied at a rate 2.68 L/ha delivering 219 g a.i/ha (which delivers Azoxystar's maximum label amount of active ingredient). • Reference item type Azoxystar—SC Strobilurin fungicide containing […] and contents: of Azoxystrobin (22.9 w/w Azoxystrobin in SC). • Reference item rate: Azoxystar was applied at the maximum recommended label rate (0.88 L/ha delivering 219 g a.i/ha) • Application interval: Once at wheat growth stage 12
200 square plastic pots (7×7×8 cm) were filled with J. Arthur Bower No. 1 seedling compost and drenched with tap water. Into each pot six spring wheat (T. aestivum cv. KWS Kielder) seeds were double sown. The pots were placed within four Secret Jardin 120 growth tents in a fully randomised block design of 40 blocks (5 pots per block). All plants were grown under a light, temperature and relative humidity (RH) regime of 16:8 light/dark, 20° C./17° C. and 80% RH. Pots were watered via capillary matting with tap water when required. No additional nutrients were supplied throughout the study. Fourteen days after sowing the six plants in each pot were reduced to three of uniform size. […]

CCOC(=O)[C@@H](C)Oc1ccc(Oc2cnc3cc(Cl)ccc3n2)cc1 [Quizalofop-p-ethyl, ethyl (2R)-2-[4-(6-chloroquinoxalin-2-yl)oxyphenoxy]propanoate]
effectiveness of Entostat matrix encapsulated formulation as foliar spray [1]: as effective as a conventional Suspension Concentrate (SC) formulation

CC1(C)[C@H](C(=O)O[C@H](C#N)c2cccc(Oc3ccccc3)c2)[C@@H]1/C=C(\Cl)C(F)(F)F (racemic) [lambda-cyhalothrin]
knock down period ([2]; Emulsifiable Concentrate (EC)): 10.33 min
knock down period ([2]; microencapsulated formulation): 17.16 min

C/C(=N\C#N)N(C)Cc1ccc(Cl)nc1 [acetamiprid]
relative percentage loading on seeds ([3]; after 10 fold decrease in powder application): 80%
relative percentage loading on seeds ([3]; before 10 fold decrease in powder application): 52%

CCOP(=S)(OCC)Oc1nc(Cl)c(Cl)cc1Cl [chlorpyrifos]
time to release 50% of the insecticide ([4]; encapsulated formulation, sodium alginate and starch microspheres): 5 days
time to release 50% of chlorpyrifos ([4]; free chlorpyrifos): 1 days

CO/C=C(/C(=O)OC)c1ccccc1Oc1cc(Oc2ccccc2C#N)ncn1 [Azoxystrobin, Methyl (2E)-2-(2-{[6-(2-cyanophenoxy)pyrimidin-4-yl]oxy}phenyl)-3-methoxyacrylate]
less Azoxystrobin retained compared to the lowest application rate ([5]; high application rate (0.6259 g a.s./Kg)): 21%
Azoxystrobin retained of original application ([5]; high application rate (0.6259 g a.s./Kg), across formulations): 41%
Azoxystrobin retained of original application ([5]; lowest application rate (0.006259 g a.s./Kg), across formulations W3800 and W3738): 62%
less Azoxystrobin retained compared to the lowest application rate ([5]; medium application rate (0.06259 g a.s./Kg)): 7%
Azoxystrobin retained of original application ([5]; medium application rate (0.06259 g a.s./Kg), across formulations): 55%
dose of Azoxystrobin which remains on the surface of the maize ([5]; medium dose, after mechanical stress): 0.0346 mg·s/kg
effectiveness of Entostat matrix encapsulated formulation as foliar spray [6]: as effective as a conventional Suspension Concentrate (SC) formulation

From patent publication US20200000087A1, “COMPOSITIONS FOR APPLICATION TO AERIAL PARTS OF PLANTS” (EXOSECT LIMITED, priority 2017, published 2020)
